Results taken from article PMC7232676, “Fragment-Based Design of Mycobacterium tuberculosis InhA Inhibitors” (Journal of Medicinal Chemistry, 2020).
Like-named read-outs stand apart in the source and are kept apart here.

Columns and labels:
InhA = InhA (Mycobacterium tuberculosis, UniProt P9WGR1); assay: InhA enzymatic assay (NADH oxidation at 340 nm, 2-trans-octanoyl-CoA substrate); format: biochemical
Protocol: The identified fragment hits were further evaluated by an InhA enzymatic assay using 2-trans-octanoyl-CoA as a substrate.[22]
The carboxylic acid in fragment 1 (P1) was replaced by an isosteric sulfonamide as a linker to synthesize compound 6 (Figure 2b). Docking experiments with Glide XP[23] […] All the synthesized compounds were tested at a concentration of 100 μM using the InhA enzymatic assay.
InhA activity was followed by a colorimetric assay that measured the oxidation of NADH at 340 nm in the presence of 2-trans-octanoyl-CoA as described before in a buffer that contained 30 mM PIPES, pH 7.5, 50 mM NaCl, 0.1 mM EDTA, and 100 nM InhA.[26] This was preincubated for 10 min at room temperature with 0.25 mM NADH and varying concentrations of the compounds with 1% (v/v) DMSO in a 150 μL reaction volume. The reaction was started by the addition of 2-trans-octanoyl-CoA at a final concentration of 1.5 mM, prepared as described previously.[22] Reactions were followed for 20 min using a plate reader (CLARIOstar, BMG LABTECH).

M. tuberculosis H37Ra = assay: Growth inhibition of M. tuberculosis H37Ra, 48 h cultivation; format: cell-based, Mycobacterium tuberculosis; details: Mycobacterium tuberculosis, H37RA; 200 μM compound in the media, 48 h cultivation
Protocol: (§1) Further analysis of the effect on the synthesis of mycolic acids by metabolic labeling[24],[25] of the model strain M. tuberculosis H37Ra with ^14C acetate was also explored. A 48 h cultivation in the presence of 200 μM of the compounds in the media led to 84% growth inhibition for compound 19; 40% and 33% growth inhibition for compounds 14 and 23, respectively; 38% growth inhibition for compound 24 and isoniazid; 23% growth inhibition for compounds 25 and 26.
(§2) The culture of M. tuberculosis H37Ra was grown statically at 37 °C in Middlebrook 7H9 broth (Difco) supplemented with albumin–dextrose–catalase and 0.05% Tween 80. When the culture reached the OD600nm value of 0.290, it was divided into 10 mL aliquots and tested compounds dissolved in DMSO were added at 200 μM final concentrations, while isoniazid that served as a control inhibitor was at 40 μM. The final concentration of DMSO in each culture was at 1%. After 24 h of cultivation with shaking (120 rpm) in the presence of tested inhibitors, ^14C acetate (specific activity of 106 mCi/mmol) was added at a final concentration of 0.5 μCi/mL and the cells were cultivated for the next 24 h.

[1] = system: synthesis of mycolic acids in M. tuberculosis H37Ra; assay: Metabolic labeling with 14C acetate, TLC of FAME/MAME (mycolic acid synthesis); format: cell-based, Mycobacterium tuberculosis; details: 200 μM compound, 14C acetate labeling
Protocol: as §1
(§3) Figure 5 (A) TLC of the metabolic labeling experiments of M. tuberculosis H37Ra with ^14C acetate treated with the compounds 14, 19, and 23–26 for the analysis of mycolic acid inhibition. Fatty acid methyl esters, FAME; mycolic acid methyl esters, MAME; isoniazid, INH. (B) TLC of the metabolic labeling experiments of M. tuberculosis H37Ra with ^14C acetate treated with the compounds 14, 19, and 23–26 for the analysis of the lipid inhibition. Trehalose monomycolates, TMM; trehalose dimycolates, TDM; phosphatidylethanolamine, PE; cardiolipin, CL; isoniazid, INH.
The culture of M. tuberculosis H37Ra was grown statically at 37 °C in Middlebrook 7H9 broth (Difco) supplemented with albumin–dextrose–catalase and 0.05% Tween 80. […]
Fatty acid methyl esters (FAMEs) and mycolic acids methyl esters (MAMEs) were prepared from whole cells harvested from 4 mL culture aliquots as previously described.[32] […] 3× and detected by autoradiography.

[2] = system: trehalose monomycolates and dimycolates in M. tuberculosis H37Ra; assay: Metabolic labeling with 14C acetate, TLC of lipid profiles (TMM, TDM); format: cell-based, Mycobacterium tuberculosis; details: 200 μM compound, 14C acetate labeling
From the text: as §3
as §2, with “After 24 h of cultivation with shaking (120 rpm) in the presence of tested inhibitors, ^14C acetate (specific activity of 106 mCi/mmol) was added at a final concentration of 0.5 μCi/mL and the cells were cultivated for the next 24 h.” left out
Lipids were extracted from whole cells as described earlier with minor modifications.[24] […] Five μL of each lipid sample was loaded on the thin-layer chromatography (TLC) silica gel plates (F254, Merck); lipids were separated in chloroform/methanol/water [20:4:0.5] and detected by autoradiography.

Chain of InhA (P9WGR1 whole entry, looked up, the tested form may be a part): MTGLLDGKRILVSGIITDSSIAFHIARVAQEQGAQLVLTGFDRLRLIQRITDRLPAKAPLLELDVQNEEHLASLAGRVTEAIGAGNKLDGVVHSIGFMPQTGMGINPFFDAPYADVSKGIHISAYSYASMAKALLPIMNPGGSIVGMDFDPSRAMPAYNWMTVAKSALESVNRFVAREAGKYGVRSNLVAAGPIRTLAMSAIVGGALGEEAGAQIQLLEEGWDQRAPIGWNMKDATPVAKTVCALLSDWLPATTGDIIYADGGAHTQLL

NCc1cccc(NS(=O)(=O)/C=C/c2cccc(C(F)(F)F)c2)c1 [compound 19, (E)-N-(3-(Aminomethyl)phenyl)-2-(3-(trifluoromethyl)phenyl)ethene-1-sulfonamide]
inhibition at 100 µM (InhA; 100 μM compound, read-out: Inh % (inhibition percentage of InhA)): > 90% | LE (ligand efficiency) (InhA; LE = (1.37 × pIC50)/HA): 0.31 | IC50 (InhA; average of three experiments): 4 µM | inhibition at 100 µM (InhA; supplementary CSV, read-out: % inhibition): > 90% | inhibition at 200 µM (M. tuberculosis H37Ra): 84% | effect on synthesis of mycolic acids [1]: slight inhibition | amount of trehalose dimycolates (TDM) [2]: decrease | amount of trehalose monomycolates (TMM) [2]: accumulation
